Assay: xn = mol fraction of the nth substance listed
Conditions: 101 kPa, Liquid; for speed of sound: sound velocity cell; for mass density: Vibrating tube method

CC(=O)[O-].[NH3+]CCO [2-hydroxyethylammonium acetate] + CCO
Conditions | mass density [kg/m3] | speed of sound [m/s]
305.65 K, x1 = 0.0497 | – | 1161.8
305.65 K, x1 = 0.101 | – | 1201.5
305.65 K, x1 = 0.201 | – | 1273.6
305.65 K, x1 = 0.3009 | – | 1359.9
305.65 K, x1 = 0.4057 | – | 1421.5
305.65 K, x1 = 0.4946 | – | 1483
305.65 K, x1 = 0.603 | – | 1556.5
305.65 K, x1 = 0.6765 | – | 1601.8
305.65 K, x1 = 0.7918 | – | 1660.8
305.65 K, x1 = 0.8825 | – | 1708.2
305.65 K, x1 = 0.9539 | – | 1748.7
305.65 K, x1 = 1 | – | 1773.4
308.15 K, x1 = 0.0497 | 813.395 | 1153.6
308.15 K, x1 = 0.101 | 846.797 | 1193.5
308.15 K, x1 = 0.201 | 902.073 | 1266
308.15 K, x1 = 0.3009 | 949.706 | 1352.8
308.15 K, x1 = 0.4057 | 992.164 | 1414.7
308.15 K, x1 = 0.4946 | 1023.13 | 1476.4
308.15 K, x1 = 0.603 | 1056.17 | 1550.2
308.15 K, x1 = 0.6765 | 1076.23 | 1595.6
308.15 K, x1 = 0.7918 | 1104.25 | 1654.6
308.15 K, x1 = 0.8825 | 1123.77 | 1702.2
308.15 K, x1 = 0.9539 | 1136.79 | 1742.2
308.15 K, x1 = 1 | 1143.39 | 1767.9
310.65 K, x1 = 0.0497 | 811.269 | 1145.4
310.65 K, x1 = 0.101 | 844.752 | 1185.5
310.65 K, x1 = 0.201 | 900.153 | 1258.5
310.65 K, x1 = 0.3009 | 947.892 | 1345.7
310.65 K, x1 = 0.4057 | 990.442 | 1407.8
310.65 K, x1 = 0.4946 | 1021.48 | 1469.7
310.65 K, x1 = 0.603 | 1054.53 | 1544
310.65 K, x1 = 0.6765 | 1074.71 | 1589.6
310.65 K, x1 = 0.7918 | 1102.76 | 1648.5
310.65 K, x1 = 0.8825 | 1122.31 | 1696.2
310.65 K, x1 = 0.9539 | 1135.37 | 1735.9
310.65 K, x1 = 1 | 1141.96 | 1762.5
313.15 K, x1 = 0.0497 | 809.131 | 1137.2
313.15 K, x1 = 0.101 | 842.694 | 1177.6
313.15 K, x1 = 0.201 | 898.225 | 1251
313.15 K, x1 = 0.3009 | 946.069 | 1338.7
313.15 K, x1 = 0.4057 | 988.723 | 1401
313.15 K, x1 = 0.4946 | 1019.83 | 1463.2
313.15 K, x1 = 0.603 | 1052.87 | 1537.7
313.15 K, x1 = 0.6765 | 1073.17 | 1583.5
313.15 K, x1 = 0.7918 | 1101.31 | 1642.5
313.15 K, x1 = 0.8825 | 1120.85 | 1690.2
313.15 K, x1 = 0.9539 | 1133.96 | 1729.9
313.15 K, x1 = 1 | 1140.55 | 1757.2
315.65 K, x1 = 0.0497 | 806.984 | 1129.1
315.65 K, x1 = 0.101 | 840.628 | 1169.7
315.65 K, x1 = 0.201 | 896.29 | 1243.5
315.65 K, x1 = 0.3009 | 944.245 | 1331.6
315.65 K, x1 = 0.4057 | 986.994 | 1394.2
315.65 K, x1 = 0.4946 | 1018.18 | 1456.6
315.65 K, x1 = 0.603 | 1051.28 | 1531.4
315.65 K, x1 = 0.6765 | 1071.63 | 1577.4
315.65 K, x1 = 0.7918 | 1099.86 | 1636.6
315.65 K, x1 = 0.8825 | 1119.38 | 1684.4
315.65 K, x1 = 0.9539 | 1132.54 | 1723.9
315.65 K, x1 = 1 | 1139.18 | 1751.9
318.15 K, x1 = 0.0497 | 804.825 | 1120.9
318.15 K, x1 = 0.101 | 838.551 | 1161.8
318.15 K, x1 = 0.201 | 894.347 | 1235.9
318.15 K, x1 = 0.3009 | 942.413 | 1324.5
318.15 K, x1 = 0.4057 | 985.266 | 1387.3
318.15 K, x1 = 0.4946 | 1016.52 | 1450
318.15 K, x1 = 0.603 | 1049.69 | 1525.2
318.15 K, x1 = 0.6765 | 1070.09 | 1571.3
318.15 K, x1 = 0.7918 | 1098.4 | 1630.7
318.15 K, x1 = 0.8825 | 1117.9 | 1678.6
318.15 K, x1 = 0.9539 | 1131.12 | 1718.1
318.15 K, x1 = 1 | 1137.82 | 1746.5
320.65 K, x1 = 0.0497 | 802.647 | 1112.8
320.65 K, x1 = 0.101 | 836.46 | 1153.9
320.65 K, x1 = 0.201 | 892.395 | 1228.4
320.65 K, x1 = 0.3009 | 940.573 | 1317.5
320.65 K, x1 = 0.4057 | 983.53 | 1380.5
320.65 K, x1 = 0.4946 | 1014.85 | 1443.5
320.65 K, x1 = 0.603 | 1048.1 | 1519
320.65 K, x1 = 0.6765 | 1068.53 | 1565.3
320.65 K, x1 = 0.7918 | 1096.93 | 1624.8
320.65 K, x1 = 0.8825 | 1116.49 | 1672.8
320.65 K, x1 = 0.9539 | 1129.69 | 1712.4
320.65 K, x1 = 1 | 1136.45 | 1741.3
323.15 K, x1 = 0.0497 | 800.468 | 1104.7
323.15 K, x1 = 0.101 | 834.368 | 1146
323.15 K, x1 = 0.201 | 890.443 | 1221
323.15 K, x1 = 0.3009 | 938.735 | 1310.5
323.15 K, x1 = 0.4057 | 981.801 | 1373.7
323.15 K, x1 = 0.4946 | 1013.19 | 1437
323.15 K, x1 = 0.603 | 1046.54 | 1512.7
323.15 K, x1 = 0.6765 | 1066.98 | 1559.4
323.15 K, x1 = 0.7918 | 1095.47 | 1618.9
323.15 K, x1 = 0.8825 | 1115.06 | 1667.2
323.15 K, x1 = 0.9539 | 1128.27 | 1706.7
323.15 K, x1 = 1 | 1135.08 | 1736

Reference: the NIST ThermoML archive (doi:10.1016/j.jct.2011.01.014)
